{"source": "patent US20040219189A1", "about": "(priority 2001, published 2004)", "key": {"kainate receptors": {"test_system": "kainate receptors", "conditions": "Narita et al. 1993; cited from earlier work"}, "Arbor Acres broilers": {"test_system": "Arbor Acres broilers", "experiment": "Fattening of broilers with feed containing GABA (day 21 to day 41 after birth)", "type": "in vivo", "conditions": "for increase in the body weight per 1 kg of feed during day 21 to day 41 after birth: compared to 0% group (p<0.05), FIG. 2; for increase in the body weight from day 21 to day 41 after birth: FIG. 1"}, "[1]": {"test_system": "ventromedial nucleus of hypothalamus (VMH) of rat", "conditions": "VMH stimulated by water absorbent polymers, Yokawa et al. 1990; cited from earlier work"}}}
{"compound": "O=C1N=c2cc([N+](=O)[O-])c([N+](=O)[O-])cc2=NC1=O", "note": "[DNQX, 6,7-dinitroquinoxaline-2,3-dione]", "values": [{"measurement": "inhibition of kainate-induced running activity in rat", "setting": "kainate receptors", "result": "inhibited"}]}
{"compound": "NCCCC(=O)O", "note": "[GABA, γ-aminobutyric acid]", "values": [{"measurement": "increase in the body weight per 1 kg of feed during day 21 to day 41 after birth", "setting": "Arbor Acres broilers; 0.5% GABA additive rate", "result": "significant increase"}, {"measurement": "increase in the body weight from day 21 to day 41 after birth", "setting": "Arbor Acres broilers; 0.5% additive rate of GABA in feed", "result": "tendency of increase was also observed at 0.5% but the significant difference was not clearly observed"}, {"measurement": "increase in the body weight per 1 kg of feed during day 21 to day 41 after birth", "setting": "Arbor Acres broilers; 1% GABA additive rate", "result": "significant increase"}, {"measurement": "increase in the body weight from day 21 to day 41 after birth", "setting": "Arbor Acres broilers; 1% additive rate of GABA in feed", "result": "maximum increase"}, {"measurement": "increase in the body weight per 1 kg of feed during day 21 to day 41 after birth", "setting": "Arbor Acres broilers; 3% GABA additive rate", "result": "significant increase"}, {"measurement": "induction of rat running activity caused by polymers", "setting": "[1]", "result": "inhibited"}]}
{"compound": "C=C(C)[C@H]1CN[C@H](C(=O)O)[C@H]1CC(=O)O", "note": "[kainate]", "values": [{"measurement": "running activity in rat", "setting": "kainate receptors", "result": "induced"}]}
